Measurements published in patent US6613734B2, “Peptides-containing liposomal surfactants” (The Scripps Research Institute, priority 1988, dated 2003).

Key:
[1] = observation whether peptide/solvent admixture formed a solution or a suspension; assay type: physicochemical
Method: Each polypeptide was admixed with the indicated solvent at a concentration of 2.5 mg of polypeptide per ml of solvent. […] Those admixtures forming a suspension were further admixed by water bath sonication for 10 seconds to form a very fine suspension, sufficient for pipetting using glass pipettes.

[2] = pulsating bubble technique ("bubble assay" of Enhorning, Enhorning Surfactometer); assay type: physicochemical; conditions: for Pressure Gradient 15″: 15 seconds; for Pressure Gradient 15″ / Pressure Gradient 1′ / Pressure Gradient 5′: peptide 10% by weight of PL, 37° C., negative pressure, mean of 3; for Pressure Gradient 1′: 1 minute; for Pressure Gradient 5′: 5 minutes
Method: Measurements of surface pressure across an air-liquid interface (expressed in negative cm of H2O pressure) at minimal (γmin) bubble radius were determined at various times using the pulsating bubble technique described by Enhorning, J. Appl. Physiol. 43: 198-203 (1977).
Briefly, the Enhorning Surfactometer (Surfactometer International, Toronto, Ontario) measures the pressure gradient (ΔP) across a liquid-air interface of a bubble that pulsates at a rate of 20 cycles/min between a maximal (0.55 mm) and minimal (0.4 mm) radius. The bubble, formed in a 37° C., water-enclosed, 20-μl sample chamber, is monitored through a microscopic optic while the pressure changes are recorded on a strip chart recorder calibrated for 0 and −2 cm H2O.
Each of the surfactants identified in Table 5 was assayed for surfactant activity as evidenced by their ability to reduce surface tension in vitro using the “bubble assay” of Enhorning as described above.
After admixture with solvent, each peptide was admixed with phospholipids (PL), DPPC:PG, 3:1, in chloroform in a glass tube so that the amount of polypeptide added equaled one-tenth (10% by. weight) of the amount of PL added, to form a surfactant according to either method A, B or C.
Each of the surfactants was then assayed for surfactant activity as evidenced by their ability to reduce surface tension in vitro in the bubble assay performed as described above. The pressure gradient (ΔP) is a measure of surfactant activity in the polypeptide-PL third admixture which was determined using an Enhorning Surfactometer as described above. Measurements were obtained at time points of 15 seconds (15″), 1 minute (1′) and 5 minutes (5′) and are expressed as a mean of three independent measurements of the indicated polypeptide-PL admixture.

[3] = 2.5 μg of peptide per μl of solvent, solvent H2O

RLLLLCLLLRLLLLCLLLR [RCL-1]
Admixture Formed ([1]; 2.5 mg of polypeptide per ml of solvent, solvent 79% chloroform 21% methanol): suspension | Pressure Gradient 15″ ([2]; PL (DPPC:PG 3:1) 10 mg/ml): 0.50 cm of H2O | Pressure Gradient 1′ ([2]; PL (DPPC:PG 3:1) 10 mg/ml): 0.59 cm of H2O | Pressure Gradient 5′ ([2]; PL (DPPC:PG 3:1) 10 mg/ml): 0.06 cm of H2O

RLLLLCLLLRLLLLCLLLRLL [RCL-2]
Admixture Formed ([1]; 2.5 mg of polypeptide per ml of solvent, solvent 67% chloroform 33% methanol): suspention | Pressure Gradient 15″ ([2]; PL (DPPC:PG 3:1) 10 mg/ml): 0.00 cm of H2O | Pressure Gradient 1′ ([2]; PL (DPPC:PG 3:1) 10 mg/ml): 0.00 cm of H2O | Pressure Gradient 5′ ([2]; PL (DPPC:PG 3:1) 10 mg/ml): 0.00 cm of H2O

RLLLLCLLLRLLLLCLLLRLLLLCLLLR [RCL-3]
Admixture Formed ([1]; 2.5 mg of polypeptide per ml of solvent, solvent 75% chloroform 25% methanol): suspension | Pressure Gradient 15″ ([2]; PL (DPPC:PG 3:1) 10 mg/ml): 0.55 cm of H2O | Pressure Gradient 1′ ([2]; PL (DPPC:PG 3:1) 10 mg/ml): 0.51 cm of H2O | Pressure Gradient 5′ ([2]; PL (DPPC:PG 3:1) 10 mg/ml): 0.33 cm of H2O

RLLLLLLLLRLLLLLLLLRLL [RL8]
Admixture Formed ([1]; 2.5 mg of polypeptide per ml of solvent, solvent 19% chloroform 81% methanol): suspension | Pressure Gradient 15″ ([2]; PL (DPPC:PG 3:1) 10 mg/ml): 0.68 cm of H2O | Pressure Gradient 1′ ([2]; PL (DPPC:PG 3:1) 10 mg/ml): 0.69 cm of H2O | Pressure Gradient 5′ ([2]; PL (DPPC:PG 3:1) 10 mg/ml): 0.19 cm of H2O

RLLLLRLLLLRLLLLRLLLLR [RL4]
Admixture Formed ([1]; 2.5 mg of polypeptide per ml of solvent, solvent 32% chloroform 68% methanoi): solution | Pressure Gradient 15″ ([2]; PL (DPPC:PG 3:1) 4 mg/ml): 0.58 cm of H2O | Pressure Gradient 1′ ([2]; PL (DPPC:PG 3:1) 4 mg/ml): 0.65 cm of H2O | Pressure Gradient 5′ ([2]; PL (DPPC:PG 3:1) 4 mg/ml): 0.33 cm of H2O

RRLLLLLLLRRLLLLLLLRRL [RL7]
Admixture Formed ([1]; 2.5 mg of polypeptide per ml of solvent, solvent 49% chloroform 51% methanol): solution | Pressure Gradient 15″ ([2]; PL (DPPC:PG 3:1) 4 mg/ml): 1.65 cm of H2O | Pressure Gradient 1′ ([2]; PL (DPPC:PG 3:1) 4 mg/ml): 1.25 cm of H2O | Pressure Gradient 5′ ([2]; PL (DPPC:PG 3:1) 4 mg/ml): 1.00 cm of H2O

SVILLDTLLGRMLPQLVCR [p54-72]
Admixture Formed ([1]; 2.5 mg of polypeptide per ml of solvent, solvent 76% chloroform 24% methanol): suspension | Pressure Gradient 15″ ([2]; PL (DPPC:PG 3:1) 10 mg/ml): 1.28 cm of H2O | Pressure Gradient 1′ ([2]; PL (DPPC:PG 3:1) 10 mg/ml): 0.92 cm of H2O | Pressure Gradient 5′ ([2]; PL (DPPC:PG 3:1) 10 mg/ml): 0.38 cm of H2O

SVILLDTLLGRMLPQLVCRLVLR [p54-76]
Admixture Formed ([1]; 2.5 mg of polypeptide per ml of solvent, solvent 71% chloroform 24% methanol): suspension | Pressure Gradient 15″ ([2]; PL (DPPC:PG 3:1) 10 mg/ml): 0.92 cm of H2O | Pressure Gradient 1′ ([2]; PL (DPPC:PG 3:1) 10 mg/ml): 0.82 cm of H2O | Pressure Gradient 5′ ([2]; PL (DPPC:PG 3:1) 10 mg/ml): 0.23 cm of H2O

VAGGICQCLAERYSV [p41-55]
Admixture Formed [1, 3]: solution

VAQVCRVVPLVAGGI [p31-45]
Admixture Formed [1, 3]: solution

p74-81: eight amino acid residue control peptide, residues 74-81 of SEQ ID NO 12 (SP18), does not conform to the teachings of the invention (VLRCSMDD) [reference compound]
Admixture Formed [1, 3]: solution | Admixture Formed ([1]; 2.5 mg of polypeptide per ml of solvent, solvent water): solution | Pressure Gradient 15″ ([2]; PL (DPPC:PG 3:1) 4 mg/ml): 2.37 cm of H2O | Pressure Gradient 1′ ([2]; PL (DPPC:PG 3:1) 4 mg/ml): 2.32 cm of H2O | Pressure Gradient 5′ ([2]; PL (DPPC:PG 3:1) 4 mg/ml): 2.31 cm of H2O | surfactant activity compared with the phospholipids alone ([2]; peptide admixed with phospholipids (DPPC:PG 3:1), bubble assay): did not form a PS having a greater activity than the phospholipid alone
